Data published in patent US12704520B2, “Melanogenesis detection method using FAM86A” (Research & Business Foundation Sungkyunkwan University, priority 2019, dated 2026).

Columns and labels:
B16F10 cells [1] = experiment: Fontana-Masson staining after FAM86A knockdown; assay type: cell-based, mouse; conditions: α-MSH 100 nM, 48 hours, microscope
Procedure: The B16F10 cells cultured in Example 1 were seeded in 6-well plates at a density of 5×10^4 cells per well, grown for 24 hours, and FAM86A shRNA represented by SEQ ID NO: 17 was used for knockdown of the FAM86A gene. The cells were treated with α-MSH at 100 nM. The resulting cells were cultured in an incubator under conditions of 37° C. and 5% CO2 for 48 hours, washed twice with PBS, and 1 mL of a 1% ammoniacal silver nitrate solution was added to each well, followed by heating a plate in a 60° C. dryer for 1 hour. Subsequently, the plate was washed three times with running water, and treated with 1 mL of a 0.2% gold chloride solution per well for 30 seconds. Afterward, the plate was washed twice with running water, treated with 1 mL of a 5% sodium thiosulfate solution per well, washed twice with running water, treated with 1 mL of a 0.5% neutral red solution per well for 2 minutes, and then washed with running water. The reaction result was confirmed under a microscope.

B16F10 cells [2] = experiment: Melanin content assay after FAM86A knockdown and α-MSH treatment; assay type: cell-based, mouse; conditions: FAM86A knockdown plus α-MSH 100 nM, 48 hours, absorbance 405 nm
Procedure: A melanocyte stimulating hormone (α-MSH), which is a melanin synthesis promoting hormone, was used to induce melanogenesis in melanocytes.
The B16F10 cells cultured in Example 1 were seeded in 6-well plates at a density of 5×10^4 cells per well, grown for 24 hours, and FAM86A shRNA represented by SEQ ID NO: 17 in Table 1 was used for knockdown of the FAM86A gene. The cells were treated with α-MSH to be 100 nM. The resulting cells were cultured in an incubator under conditions of 37° C. and 5% CO2 for 48 hours, the medium was removed, and a cell lysis buffer was treated at 200 μL per well to lyse the cells, followed by centrifugation at 4° C. and 12,000 rpm for 5 minutes and removal of a supernatant. The resulting pellet was treated with 100 μL of a 10% sodium dodecyl sulfate-1M NaOH solution and heated for 30 minutes at 60° C. Afterward, the heated solution was maintained at room temperature to cool to 25° C., absorbance at 405 nm was measured, and the results are shown in FIG. 12. Here, an amount of melanin production was calculated based on 100% of the amount of melanin in cells not treated with α-MSH.

B16F10 cells [3] = experiment: Melanin secretion assay after FAM86A knockdown and α-MSH treatment; assay type: cell-based, mouse; conditions: FAM86A knockdown plus α-MSH 100 nM, 48 hours, absorbance 475 nm
Procedure: The melanin synthesis promoting hormone α-MSH was used to induce melanogenesis in melanocytes.
The B16F10 cells cultured in Example 1 were seeded in a 6-well plate at 5×10^4 cells/well and cultured for 24 hours, FAM86A (family with sequence similarity 86, member A) shRNA represented by SEQ ID NO: 17 was used for knockdown of the FAM86A gene, and then the cells were treated with α-MSH at 100 nM. The resulting cells were cultured in an incubator under conditions of 37° C. and 5% CO2 for 48 hours, and 800 μL of the cell culture fluid was transferred to a fresh tube, and centrifuged at 4° C. and 12,000 rpm for 5 minutes to obtain a supernatant. 100 μL of the resulting supernatant was dispensed into a 96-well plate, and subjected to absorbance measurement at 475 nm. Here, an amount of melanin production was calculated based on 100% of the amount of melanin in cells not treated with α-MSH.

cAMP = cAMP ELISA after FAM86A knockdown; assay type: cell-based, mouse; conditions: B16F10 cells
Procedure: The B16F10 cells cultured in Example 1 were seeded in 6-well plates at a density of 5×10^4 cells per well, grown for 24 hours, and FAM86A shRNA represented by SEQ ID NO: 17 was used for FAM86A gene knockdown. Afterward, the cells were washed twice with PBS. Subsequently, PBS was completely removed, and then 200 μL of RIPA buffer, which is a tissue lysis and staining reagent, was added to each plate, followed by harvesting cells with a scraper. Afterward, a BCA assay was conducted to quantify proteins, and then the expression of cAMP protein was measured using a cAMP ELISA kit (ab65355).

[4] = test system: tyrosinase, TYRP-1, TYRP-2 and MITF genes; experiment: Real-time PCR of melanogenesis-associated genes after FAM86A knockdown; assay type: cell-based, mouse; conditions: B16F10 cells, 48 hours
Procedure: The B16F10 cells cultured in Example 1 were seeded in 6-well plates at a density of 5×10^4 cells per well, grown for 24 hours, and FAM86A shRNA represented by SEQ ID NO: 17 was used for knockdown of the FAM86A gene. The cells were incubated in an incubator under conditions of 37° C. and 5% CO2 for 48 hours. After 48 hours, the medium was completely removed, the cells were decomposed with TRIzol and neutralized using BCP. The neutralized liquid was treated with isopropanol to precipitate mRNA. Subsequently, only the precipitated mRNA was collected using a centrifuge, and used for the experiment. Intracellular mRNA was synthesized into cDNA using a cDNA kit, and the expression levels of tyrosinase, TYRP-1, TYRP-2 and MITF genes, which are important for melanogenesis, were determined by PCR.

B16F10 cells [5] = experiment: Melanin secretion assay after FAM86A knockdown; assay type: cell-based, mouse; conditions: FAM86A knockdown without α-MSH, 48 hours, absorbance 475 nm
Procedure: The B16F10 cells cultured in Example 1 were seeded in a 6-well plate at 5×10^4 cells/well and cultured for 24 hours, and the knockdown of the FAM86A gene was induced using FAM86A shRNA represented by SEQ ID NO: 17. The cells were cultured in an incubator under conditions of 37° C. and 5% CO2 for 48 hours, the medium was removed, and then a cell lysis buffer was added at 200 μL per well to lyse the cells, followed by centrifugation at 4° C. and 12,000 rpm for 5 minutes and removal of a supernatant. 100 μL of the resulting supernatant was dispensed into a 96-well plate, and subjected to absorbance measurement at 475 nm. Here, an amount of melanin secretion was calculated based on 100% of the amount of melanin in cells in which the FAM86A gene was not knocked down.

FAM86 (NM_027446.2) = experiment: shRNA mean knockdown level of FAM86 (Table 1); assay type: cell-based; conditions: Mus musculus FAM86, pLKO.1 vector

Substance: SEQ ID NO: 17: FAM86 shRNA (Mus musculus, NM_027446.2), pLKO.1 vector, target sequence SEQ ID NO: 27; used in the examples (DNA CCGGGTCTATGTAGCCTATACTATCCTCGAGGATAGTATAGGCTACATAGACTTTTTG)
- presence of melanin (Fontana-Masson staining) (B16F10 cells [1]): more present
- amount of melanin (production) (B16F10 cells [2]): increased
- secretion amount of melanin (B16F10 cells [3]): increased
- cAMP expression (cAMP): increased
- expression level of MITF gene [4]: significantly increased
- expression level of TYRP-1 gene [4]: significantly increased
- expression level of TYRP-2 gene [4]: significantly increased
- expression level of tyrosinase gene [4]: significantly increased
- amount of melanin secretion (B16F10 cells [5]): increased
- Mean Knock down level (FAM86 (NM_027446.2)): 0.87
